Data: US12522628B2, “Aryl glucoside derivative and use thereof in drug” (SHANGHAI ZHEYE BIOTECHNOLOGY CO. LTD., priority 2020, dated 2026)
pIC50: −log10 of the molar value.

What was measured:
[1] = target: T1, SGLT1 (Homo sapiens, UniProt P13866); assay: SGLT1 Inhibitor Activity Experiment 1; assay type: cell-based
T1 sequence (P13866 1-664): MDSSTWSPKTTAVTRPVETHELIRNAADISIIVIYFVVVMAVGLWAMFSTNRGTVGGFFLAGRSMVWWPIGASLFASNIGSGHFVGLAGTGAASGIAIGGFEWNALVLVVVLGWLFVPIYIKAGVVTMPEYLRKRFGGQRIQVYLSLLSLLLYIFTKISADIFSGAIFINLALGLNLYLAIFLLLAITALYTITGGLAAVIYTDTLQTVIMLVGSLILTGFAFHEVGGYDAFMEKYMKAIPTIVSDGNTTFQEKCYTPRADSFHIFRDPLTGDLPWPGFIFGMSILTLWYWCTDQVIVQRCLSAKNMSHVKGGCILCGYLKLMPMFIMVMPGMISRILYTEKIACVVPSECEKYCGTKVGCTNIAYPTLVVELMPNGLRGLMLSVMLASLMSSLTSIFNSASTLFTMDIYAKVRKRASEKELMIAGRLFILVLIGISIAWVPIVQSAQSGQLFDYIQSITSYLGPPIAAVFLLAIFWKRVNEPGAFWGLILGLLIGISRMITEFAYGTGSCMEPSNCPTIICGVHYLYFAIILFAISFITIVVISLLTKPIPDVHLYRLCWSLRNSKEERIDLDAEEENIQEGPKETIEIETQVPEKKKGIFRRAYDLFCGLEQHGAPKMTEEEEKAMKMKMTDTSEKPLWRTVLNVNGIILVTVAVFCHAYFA
Method: The inhibitory activity of SGLT1 was tested with reference to the method described in document (Journal of Medicinal Chemistry 2017, 60, 710-721, Discovery of LX2761, a Sodium-Dependent Glucose Cotransporter 1 (SGLT1) Inhibitor Restricted to the Intestinal Lumen, for the Treatment of Diabetes).

[2] = Pharmacokinetic study in rats; assay type: in vivo, SD rats; conditions: 10 mg/kg, oral gavage; for bioavailability: male, SD, rat, plasma, po, read-out: Absolute Bioavailability(F %)
Method: • Experimental animals: SPF male SD rats; • Dosage and method of administration: 10 mg/kg, oral gavage.
Research compound: Dapagliflozin, the compound of Example 5, the compound of Example 7, the compound of Comparative Example 6; • Test method: Before administration (0), and 1, 4, 8, and 24 hours after administration, 0.2 ml of blood was collected from orbital venous plexus, anticoagulated with heparin, and plasma was collected.

[3] = test system: blood glucose; assay: Oral glucose tolerance test (OGTT) after consecutive administration in mice; assay type: in vivo; conditions: oral gavage 5 days, OGTT on day 6
Method: (§1) • Experimental animals: SPF male mice; • Compound preparation: an appropriate amount of the compounds of Example 5 was weighed, and uniformly suspended with an appropriate amount of 0.5% CMC-Na solution; • Preparation of glucose solution: an appropriate amount of glucose powder was weighed and dissolved with an appropriate amount of pure water; • Administration and dosage: oral gavage; blank vehicle group, high-dose group (1.6 mg/kg), low-dose group (0.12 mg/kg).
(§2) Experimental process: • (1) The mice were fed a high-sugar diet for 6 days, and then grouped (10 mice in each group) to enter the administration stage; • (2) Example compound 5 was administered at 5:00 pm every day from day 1 to day 5, once a day, and then the animals were fed a high-sugar free diet, and the defecation of the animals was observed. • (3) On day 6, oral glucose tolerance test was performed, and glucose solution (2 g/kg) was orally administered. Blood glucose was detected before (0 min) and 10, 30, and 60 min after giving glucose solution, respectively.

[4] = target: T1, SGLT1; assay: HSGLT1 inhibitor activity experiment: 2-NBDG uptake by HEK293 cells stably expressing human SGLT1; assay type: cell-based; parameters: expressed in transfected cells; host or cells: HEK293; conditions: for pIC50: 2-NBDG uptake, HEK293 stably expressing human SGLT1, read-out: SGLT1 Inhibitory Activity
Method: Inhibitory activity testing was performed with reference to a similar method described in document (Acta Pharmaceutica Sinica 2017, 52(6):897-903; Nature Protocols (2007), 2(3), 753-762; Journal of Biochemical and Biophysical Methods (2005), 64(3), 207-215; Diabetes Technology & Therapeutics (2011), 13(7), 743-775).
In this experiment, the in vitro activity assay was evaluated using the uptake of 2-NBDG (2-Deoxy-2-[(7-nitro-2,1,3-benzoxadiazol-4-yl)amino]-D-glucose, CAS NO: 186689-07-6) by human embryonic kidney epithelial cells (HEK293, stably expressing human SGLT1), and the SGLT1 inhibitory activity of the target compound was determined by measuring its half-maximal inhibitory concentration (IC50).
HEK293 cells that can stably express human SGLT1 gene were inoculated into a 96-well clear-bottom black plates containing DMEM medium. The cells were incubated at 37° C., 5% CO2in a cell incubator. The medium in the 96-well plate was aspirated, and the plate was treated with low-glucose serum-free DMEM medium, and washed once with non-specific uptake buffer and once with Na^+-dependent uptake buffer. Uptake buffer containing test compound was added to each well of cells, followed by uptake buffer containing 2-NBDG for glucose uptake, and the cell plate was incubated at 37° C., 5% CO2. The compounds were gradiently diluted. The uptake reaction was stopped by removing the culture medium, and after washing the cells with ice-cold uptake buffer, the washing solution was removed. The cells were lysed by adding NaOH, and the content of 2-NBDG in the cells was detected by a fluorescence microplate reader. The protein concentration of the lysate was measured by BCA method, the uptake of 2-NBDG was quantified by fluorescence intensity/protein content, and the obtained data were analyzed using GraphPad Prism to determine the median inhibitory concentration (IC50) of the compound to be tested.

[5] = test system: blood glucose; assay: In vivo hypoglycemic efficacy experiment combined with sitagliptin, STZ-induced type 2 diabetes mouse model; parameters: species or system Balb/C male mice
Method: Model establishment: SPF grade Balb/C male mice were used in this experiment, and the establishment of the type 2 diabetes mouse model was induced by intraperitoneal injection of streptozotocin (STZ) supplemented by high-fat and high-sugar diet.
Administration: normal group, model group, low-dose combined administration group (the compound of Example 5 0.02 mg/kg+sitagliptin 20 mg/kg), medium-dose combined administration group (the compound of Example 5 0.06 mg/kg+sitagliptin 20 mg/kg), high-dose combined administration group (the compound of Example 5 0.1 mg/kg+sitagliptin 20 mg/kg), sitagliptin group (20 mg/kg). The normal group and the model group were given the solvent by gavage.

[6] = Observation of defecation (loose stools) in rats during OGTT study; assay type: in vivo, SD rats; conditions: 0.012 mg/kg oral gavage, within 48 hours before and after the experiment
Method: (§3) Experimental process: the animals were fed a normal diet with consecutive administration for 14 days, and the glucose tolerance test was performed on day 15, blood glucose was detected before administration (−30 min), before giving glucose (0 min), and 10, 30, 60, and 120 min after giving glucose solution, and the defecation of animals was observed.

[7] = Observation of defecation (loose stools) in mice, day 1 to day 5; assay type: in vivo
Method: as §1, §2

[8] = test system: rat feces suspension; assay: Intestinal microbial metabolic stability in rat feces suspension; assay type: in vitro ADME; conditions: for Remaining percentage of compound: rat feces suspension, 37 C
Method: Methods: The collected rat feces were processed, and the feces suspension was obtained for the determination of metabolic stability. The mixed reaction system consisting of the rat feces suspension and the compound of Example 5 was incubated at 37 C for 3 h, 6 h, 12 h and 24 h. The compound of Example 5 in the incubation system was analyzed to determine the total amount of remaining compound. Wherein, “+” represents the remaining percentage being: <50%; “++” represents the remaining percentage being: 50% to 70%; “+++” represents the remaining percentage being: 70% to 90%; […].

[9] = test system: blood glucose; assay: Oral glucose tolerance test (OGTT) after continuous administration in rats for 14 days; assay type: in vivo, SD rats; conditions: 0.012 mg/kg oral gavage, OGTT on day 15
Method: • Experimental animals: SPF male SD rats; • Compound preparation: an appropriate amount of the compounds of Example 2, Example 3, and Example 5 were weighed, and uniformly suspended with an appropriate amount of 0.5% CMC-Na solution; • Preparation of glucose solution: an appropriate amount of glucose powder was weighed and dissolved with an appropriate amount of pure water; • Dosage and method of administration: 0.012 mg/kg, oral gavage.
as §3

[10] = Lipid solubility and water solubility compared with Example 5; assay type: physicochemical

Compound: C#CCN(C)CCNC(=O)C/C=C/c1ccc(Cc2cc([C@@H]3O[C@H](SC)[C@@H](O)[C@H](O)[C@H]3O)ccc2C)cc1 [Example 8]
- pIC50 [1]: > 7.30

Compound: C#CCN(C)CCNC(=O)CCOCc1ccc(Cc2cc([C@@H]3O[C@H](SC)[C@@H](O)[C@H](O)[C@H]3O)ccc2C)cc1 [Example 7]
- absorption in vivo after oral administration (in words) [2]: almost no absorption in vivo
- detection in vivo after oral administration (in words) [2]: hardly detected in vivo
- bioavailability [2]: < 1.5%
- pIC50 [1]: > 7.30

Compound: C#CCN(C)CCNC(=O)CCCc1ccc(Cc2cc([C@@H]3O[C@H](SC)[C@@H](O)[C@H](O)[C@H]3O)ccc2C)cc1 [Example 5]
- blood glucose level of mice in OGTT ([3]; high-dose group (1.6 mg/kg)): significantly reduce the blood glucose level
- blood glucose level of mice in OGTT ([3]; low-dose group (0.12 mg/kg)): significantly reduce the blood glucose level
- activity of inhibiting SGLT1 (in words) [4]: significant activity of inhibiting SGLT1
- pIC50 [4]: 9.43
- dose-effect relationship of blood glucose reduction ([5]; Example 5 0.02, 0.06, 0.1 mg/kg combined with sitagliptin 20 mg/kg): there is a dose-effect relationship
- blood glucose level of diabetic model animals ([5]; Example 5 0.02, 0.06 or 0.1 mg/kg combined with sitagliptin 20 mg/kg): significantly reduce the blood glucose level
- loose stools in experimental animals [6]: no loose stools were observed
- number of animals with loose stools ([7]; high dose group (1.6 mg/kg), day 1): 1 animal
- loose stools (in words) ([7]; high dose group (1.6 mg/kg), day 2 to day 5): did not have loose stools
- Statistics of loose stools in animals ([7]; high-dose group (1.6 mg/kg), Day 1, animals with loose stool/animals in group): 1/10
- Statistics of loose stools in animals ([7]; high-dose group (1.6 mg/kg), Day 2): 0/10
- Statistics of loose stools in animals ([7]; high-dose group (1.6 mg/kg), Day 3): 0/10
- Statistics of loose stools in animals ([7]; high-dose group (1.6 mg/kg), Day 4): 0/10
- Statistics of loose stools in animals ([7]; high-dose group (1.6 mg/kg), Day 5): 0/10
- Statistics of loose stools in animals ([7]; low-dose group (0.12 mg/kg), Day 1): 0/10
- Statistics of loose stools in animals ([7]; low-dose group (0.12 mg/kg), Day 2): 0/10
- Statistics of loose stools in animals ([7]; low-dose group (0.12 mg/kg), Day 3): 0/10
- Statistics of loose stools in animals ([7]; low-dose group (0.12 mg/kg), Day 4): 0/10
- Statistics of loose stools in animals ([7]; low-dose group (0.12 mg/kg), Day 5): 0/10
- loose stools (in words) ([7]; low-dose group (0.12 mg/kg), continuous administration for 5 days): did not have loose stools
- remaining compound ([8]; incubated with microorganisms in rat feces for about 24 hours): > 70%
- Remaining percentage of compound ([8]; incubation 12 h): +++ (the remaining percentage being: 70% to 90%)
- Remaining percentage of compound ([8]; incubation 24 h): +++ (the remaining percentage being: 70% to 90%)
- absorption in vivo after oral administration (in words) [2]: almost no absorption in vivo
- detection in vivo after oral administration (in words) [2]: hardly detected in vivo
- bioavailability [2]: < 1.5%
- pIC50 [1]: > 7.30
- blood sugar level of rats in OGTT [9]: significantly reduce the blood sugar level

Compound: CS[C@H]1O[C@@H](c2ccc(C)c(Cc3ccc(CCCC(=O)NCCN(C)Cc4cn(C5CC5)nn4)cc3)c2)[C@H](O)[C@@H](O)[C@@H]1O
- lipid solubility relative to Example 5 [10]: better lipid solubility
- water solubility relative to Example 5 [10]: better lipid solubility and water solubility

Compound: CS[C@H]1O[C@@H](c2ccc(C)c(Cc3ccc(CCCC(=O)NCCN4CCN(C)CC4)cc3)c2)[C@H](O)[C@@H](O)[C@@H]1O [Example 2]
- activity of inhibiting SGLT1 (in words) [4]: significant activity of inhibiting SGLT1
- pIC50 [4]: 9.01
- loose stools in experimental animals [6]: no loose stools were observed
- blood sugar level of rats in OGTT [9]: significantly reduce the blood sugar level

Compound: CS[C@H]1O[C@@H](c2ccc(C)c(Cc3ccc(CCCC(=O)NCCN4CCCCC4)cc3)c2)[C@H](O)[C@@H](O)[C@@H]1O [Example 3]
- activity of inhibiting SGLT1 (in words) [4]: significant activity of inhibiting SGLT1
- pIC50 [4]: 9.08
- loose stools in experimental animals [6]: no loose stools were observed
- blood sugar level of rats in OGTT [9]: significantly reduce the blood sugar level

Compound: C#CCN(C)CCNC(=O)CCOc1ccc(Cc2cc([C@@H]3O[C@H](SC)[C@@H](O)[C@H](O)[C@H]3O)ccc2C)cc1 [Example 6]
- pIC50 [1]: > 7.30

Compound: CS[C@H]1O[C@@H](c2ccc(C)c(Cc3ccc(CCCC(=O)NCCN(C)Cc4ccccc4)cc3)c2)[C@H](O)[C@@H](O)[C@@H]1O [Example 4]
- activity of inhibiting SGLT1 (in words) [4]: significant activity of inhibiting SGLT1
- pIC50 [4]: 9.00

Compound: CCOc1ccc(Cc2cc([C@@H]3O[C@H](CO)[C@@H](O)[C@H](O)[C@H]3O)ccc2Cl)cc1 [Dapagliflozin, reference compound]
- absorption in vivo after oral administration (in words) [2]: absorbed into the blood
- bioavailability [2]: 73%
